No end group written: not given here.

The values below come from PMC7108782, “Direct interaction of metastasis-inducing S100P protein with tubulin causes enhanced cell migration without changes in cell adhesion” (Biochemical Journal, 2020).

Series [1] concerns the target T1, S100P (Homo sapiens, UniProt P25815).
T1 construct: made in house
T1 sequence (P25815 1-95): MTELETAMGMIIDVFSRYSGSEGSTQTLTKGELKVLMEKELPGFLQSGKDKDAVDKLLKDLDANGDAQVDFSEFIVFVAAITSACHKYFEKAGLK
The experiment in a line: Isothermal titration calorimetry (ITC) of tubulin peptides with S100P. The settings on record: ITC, 25°C, 20 mM MES pH 6.1, 50 mM NaCl, 1.0 mM TCEP, 5 mM CaCl2; single site fit; peptide in cell, S100P titrated. It counts as binding. As for the experimental part: Measurements were conducted using an ITC-200 instrument (Microcal) as previously described. ITC titrations were performed in 20 mM MES pH 6.1, 50 mM NaCl, 1.0 mM TCEP and 5 mM CaCl2 (for Ca^2+-form of S100P) at 25°C. Due to low solubility, peptide solutions at concentrations of 10–400 µM were placed in the cell and titrated with S100P at concentrations of 0.5–3 mM, depending on the peptide concentration. Data were integrated and fitted to a single site binding equation using Origin 7 software which was included with the ITC module (Malvern Microcal, Malvern, U.K.).
(Isothermal titration calorimetry measures the heat released or taken up as one component is titrated into another.)

Series [2] is classed as physicochemical. The settings on record: pH 6.1. On the procedure:
^1H, ^15N HSQC spectra were measured at 40°C in 20 mM 2-morpholinoethanesulfonic acid sodium salt (MES), 50 mM NaCl, 0.5 mM CaCl2, 2 mM Tris-carboxyethyl-phosphine (TCEP), pH 6.1 buffer as described previously. Samples were prepared from 1.6 mM solution of ^15N-labelled S100P and 2–5 mM peptide solutions to obtain a 1 : 1 mixture of 0.1 mM of S100P and 0.1 mM of each peptide. Initially, peptide solutions were prepared by weight to produce 5 mM peptide concentrations. […] In these cases, buffer was added to reduce the peptide concentration to 2 mM. […] These peptides were added to the protein as cloudy suspensions to produce 0.1 mM solutions; some precipitations were still detected. To estimate the peptide concentrations, equivalent peptide solutions without the protein were prepared. All solutions were centrifuged before the NMR measurements. NMR spectra were collected on Bruker Avance III 800 MHz spectrometer equipped with CryoProbe. Data were processed and analysed in TopSpin 3.5 (Bruker, Karlsruhe, Germany).
Measurements were conducted using an ITC-200 instrument (Microcal) as previously described. ITC titrations were performed in 20 mM MES pH 6.1, 50 mM NaCl, 1.0 mM TCEP and 5 mM CaCl2 (for Ca^2+-form of S100P) at 25°C. […]

In the case of DICFRTLKLTTPTYGDLNHLVSATMS [DIC], the affinity in series [1], expressed as Kd, was 9 µM. In addition, the “solubility / aggregation (in words)” value in series [2] is recorded as “sufficiently soluble to measure their binding parameters by ITC”.
